From patent US20220324835A1 (Nurix Therapeutics, Inc., priority 2018, published 2022) come the findings set out here.

The subject of experiment [1] is human T-cells with allogenic immature dendritic cells. Put plainly: Allogenic mixed lymphocyte reaction (MLR), T-cell proliferation. Particulars: 120 h, 5 days, baseline T-cells without Cbl-b inhibitor, read-out: Proliferation, fold change over baseline. The experiment is classed as cell-based. On the procedure:
Cbl-b inhibitor effects on primary human T-cells were also evaluated in the context of an allogenic mixed lymphocyte reaction (MLR). Allogenic immature dendritic cells were generated under the following conditions. Peripheral blood mononuclear cells (PBMC) were obtained either: 1) by using Ficoll-Paque™ (GE Healthcare) for separation of peripheral blood hematopoietic cells from huffy coats of healthy human donors; or 2) directly from LeukoPak donations. […] Monocytes were cultured with 30 ng/mL of recombinant human GM-CSF and 20 ng/mL of recombinant human IL-4 for seven days to generate immature dendritic cells. Monocytes and T-cells were either isolated fresh from peripheral blood or thawed from frozen stocks. Human T-cells were isolated, labeled with CFSE and incubated with inhibitors as described above. […] Proliferation of the T-cells was evaluated by flow cytometry.
Readouts for the allogenic mixed lymphocyte reaction were reported as fold change over baseline. Baseline for this study was the measurement obtained from total human T-cells stimulated with allogenic immature dendritic cells, wherein the T-cells were not incubated with a Cbl-b inhibitor (Table 5). Increases in proliferation greater than 2-fold over baseline were considered a positive response (Table 5).

The subject of experiment [2] is T-cells. Put plainly: In vivo activity: CD25 expression on CD4+ or CD8+ T-cells of mice stimulated with anti-CD3 antibody. Particulars: 2 μg anti-CD3 antibody, 24 hours. A digest of the protocol: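 C57BL/6 or BALB/c mice dosed with inhibitor (IV, IP, SC or PO, e.g. BID or TID), then stimulated with 2 μg anti-CD3 antibody. Plasma IL-2, IFNγ, TNFα at 8 h and CD25 on CD4+/CD8+ T-cells by flow cytometry at 24 h; fold change over vehicle plus anti-CD3, binned A–E.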

In experiment [3] the test system is primary human NK cells. Put plainly: NK cell activation assessed by cytokine secretion (coculture with K562 NucRed target cells). Type of experiment: cell-based. The settings on record: for fold induction at 0.625 µM: 0.625 μM compound; for fold induction at 2.5 µM: 2.5 μM compound. In a few lines:
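Read-out is cytokine secretion (IFNγ, TNFα, MIP1β; ELISA or Luminex) as fold over coculture without inhibitor, >2.0-fold taken as positive. Donor NK cells, IL-2 primed (60 ng/mL) overnight, received compound 1 h ahead (e.g. 0.1–10 μM, DMSO <0.1%) and were mixed 6 h with K562 NucRed targets at e.g. 5:1, 1:1, 1:5.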

The mark [4] stands for this setting: K562, NK cells cocultured with K562 NucRed, 1:1 E/T, read-out: IFNγ secretion, fold change over baseline.
The mark [5] stands for this setting: K562, NK cells cocultured with K562 NucRed, 1:1 E/T, read-out: TNFα secretion, fold change over baseline.
Setting [6] is: K562, NK cells cocultured with K562 NucRed, 1:1 E/T, 10 μM compound, read-out: IFNγ secretion, fold change over baseline.
[7] abbreviates: K562, NK cells cocultured with K562 NucRed, 1:1 E/T, 10 μM compound, read-out: TNFα secretion, fold change over baseline.
The mark [8] stands for this setting: K562, 1:1 E/T, read-out: IFNγ secretion.
[9] abbreviates: K562, 1:1 E/T, read-out: MIP1β secretion.
Where [10] appears, read: K562, 1:1 E/T, read-out: TNFα secretion.
Where [11] appears, read: K562, 1:1 E/T, 10 μM, read-out: IFNγ secretion.
Setting [12] is: K562, 1:1 E/T, 10 μM, read-out: MIP1β secretion.
Where [13] appears, read: K562, 1:1 E/T, 10 μM, read-out: TNFα secretion.
[14] abbreviates: K562, 5:1 E/T, read-out: IFNγ secretion.
Where [15] appears, read: K562, 5:1 E/T, read-out: MIP1β secretion.
[16] abbreviates: K562, 5:1 E/T, read-out: TNFα secretion.
[17] abbreviates: K562, 5:1 E/T, 10 μM, read-out: IFNγ secretion.
[18] abbreviates: K562, 5:1 E/T, 10 μM, read-out: MIP1β secretion.
The mark [19] stands for this setting: K562, 5:1 E/T, 10 μM, read-out: TNFα secretion.

Where two headings read alike, the source gives them in different places.

As for `C[C@H](Cc1nncn1C)c1cccc(NC(=O)c2cccc(C(F)(F)F)n2)c1` [Compound 183a, (R)-N-(3-(1-(4-methyl-4H-1,2,4-triazol-3-yl)propan-2-yl)phenyl)-6-(trifluoromethyl)picolinamide], in experiment [1], the fold induction at 3 µM was below 2 and the fold induction at 10 µM was below 2. Moreover, in experiment [2] (90 mpk IP BID), the “CD4+ T-cell % CD25+” value was “D (D indicates 1.00-1.50)” and the “CD8+ T-cell % CD25+” value is reported as “D (D indicates 1.00-1.50)”. In experiment [3] (setting [4]), the fold induction at 0.625 µM was 2.01 to 5 and the fold induction at 2.5 µM is 2.01 to 5. Also, in experiment [3] (setting [5]), the fold induction at 0.625 µM lay within 1.01 to 2 and the fold induction at 2.5 µM is 2.01 to 5. For the same compound, the fold induction at 10 µM in experiment [3] (setting [6]) was 2.01 to 5. Besides, in experiment [3] (setting [7]), the fold induction at 10 µM lay within 2.01 to 5.
For the compound `Cc1cc(C(=O)Nc2cccc([C@H](C)Cc3nncn3C)c2)nc(C2CC2)n1` [Compound 195, (R)-2-cyclopropyl-6-methyl-N-(3-(1-(4-methyl-4H-1,2,4-triazol-3-yl)propan-2-yl)phenyl)pyrimidine-4-carboxamide], the fold induction at 3 µM in experiment [1] was below 2. Besides, the fold induction at 10 µM was 2.01 to 3 in experiment [1]; 2.01 to 5 in experiment [3] (setting [11]); 2.01 to 5 in experiment [3] (setting [12]); 2.01 to 5 in experiment [3] (setting [13]); above 5 in experiment [3] (setting [17]); 2.01 to 5 in experiment [3] (setting [18]). Further, the fold induction at 10 µM in experiment [3] (setting [19]) was above 5; in experiment [3] (setting [6]), above 5; in experiment [3] (setting [7]) it was 2.01 to 5. Also, the entries for the “CD4+ T-cell % CD25+” value in experiment [2] (90 mpk PO BID), in experiment [2] (135 mpk PO BID) and in experiment [2] (180 mpk PO BID) were “D (D indicates 1.00-1.50)”, “D (D indicates 1.00-1.50)” and “C (C indicates 1.51-2.00)”, respectively. For the same compound, the “CD8+ T-cell % CD25+” value in experiment [2] (90 mpk PO BID), in experiment [2] (135 mpk PO BID) and in experiment [2] (180 mpk PO BID) was “D (D indicates 1.00-1.50)” each time. The fold induction at 1 µM in experiment [3] (setting [8]) fell in the range of 2.01 to 5; in experiment [3] (setting [9]), 1.01 to 2; in experiment [3] (setting [10]), 2.01 to 5; in experiment [3] (setting [14]) it was 2.01 to 5; in experiment [3] (setting [15]), 2.01 to 5; in experiment [3] (setting [16]), 2.01 to 5. For the same compound, the fold induction at 0.625 µM in experiment [3] (setting [4]) is 2.01 to 5; in experiment [3] (setting [5]), 1.01 to 2. In addition, the fold induction at 2.5 µM in experiment [3] (setting [4]) and in experiment [3] (setting [5]) was 2.01 to 5 each time.
`C[C@H](Cc1nncn1C)c1cccc(N2Cc3c(cccc3C(F)(F)F)C2=O)c1` [Compound 255a, (R)-2-(3-(1-(4-methyl-4H-1,2,4-triazol-3-yl)propan-2-yl)phenyl)-4-(trifluoromethyl)isoindolin-1-one]: the fold induction at 3 µM in experiment [1] was below 2. Also, the fold induction at 10 µM in experiment [1] was below 2; in experiment [3] (setting [11]) it was 2.01 to 5; in experiment [3] (setting [12]), 1.01 to 2; in experiment [3] (setting [13]), below 1; in experiment [3] (setting [17]), above 5; in experiment [3] (setting [18]) it was 1.01 to 2. The fold induction at 10 µM in experiment [3] (setting [19]) is below 1; in experiment [3] (setting [6]), 2.01 to 5; in experiment [3] (setting [7]), 2.01 to 5. The “CD4+ T-cell % CD25+” value in experiment [2] (90 mpk IP BID) is reported as “B (B indicates 2.01-2.50)”; in experiment [2] (135 mpk PO BID), “D (D indicates 1.00-1.50)”. Further, the “CD8+ T-cell % CD25+” value in experiment [2] (90 mpk IP BID) is reported as “D (D indicates 1.00-1.50)”; in experiment [2] (135 mpk PO BID), “E (E indicates <1.00)”. In addition, the fold induction at 1 µM in experiment [3] (setting [8]) was 1.01 to 2; in experiment [3] (setting [9]), below 1; in experiment [3] (setting [10]), below 1; in experiment [3] (setting [14]), 1.01 to 2; in experiment [3] (setting [15]), below 1; in experiment [3] (setting [16]), below 1. For the same compound, the fold induction at 0.625 µM in experiment [3] (setting [4]) and in experiment [3] (setting [5]) was 1.01 to 2 each time. Also, the fold induction at 2.5 µM in experiment [3] (setting [4]) and in experiment [3] (setting [5]) was 1.01 to 2 in each case.
Turning to `Cn1cnnc1C(F)(F)[C@](C)(F)c1cccc(N2Cc3c(cc(CN4CC[C@@H](F)C4)cc3C(F)(F)F)C2=O)c1` [Compound 450], in experiment [1], the fold induction at 3 µM is below 2. Also, the fold induction at 10 µM in experiment [1] was 2.01 to 3; in experiment [3] (setting [6]), above 5; in experiment [3] (setting [7]), 2.01 to 5. For the same compound, the fold induction at 0.625 µM fell in the range of 2.01 to 5 in experiment [3] (setting [4]) and 1.01 to 2 in experiment [3] (setting [5]). Further, the fold induction at 2.5 µM is above 5 in experiment [3] (setting [4]) and 2.01 to 5 in experiment [3] (setting [5]).
In the case of `COC1CN(Cc2cc3c(c(C(F)(F)F)c2)CN(c2cccc([C@@](C)(F)C(F)(F)c4nncn4C)c2)C3=O)C1` [Compound 452, (R)-6-((3-methoxyazetidin-1-yl)methyl)-2-(3-(1,1,2-trifluoro-1-(4-methyl-4H-1,2,4-triazol-3-yl)propan-2-yl)phenyl)-4-(trifluoromethyl)isoindolin-1-one], the fold induction at 3 µM in experiment [1] is below 2. In addition, the fold induction at 10 µM was below 2 in experiment [1], above 5 in experiment [3] (setting [6]) and 2.01 to 5 in experiment [3] (setting [7]). Also, the values for the fold induction at 0.625 µM in experiment [3] (setting [4]) and in experiment [3] (setting [5]) were above 5 and 1.01 to 2, respectively. Moreover, the fold induction at 2.5 µM in experiment [3] (setting [4]) is above 5; in experiment [3] (setting [5]) it was 2.01 to 5.
For the compound `Cn1cnnc1C(F)(F)[C@](C)(F)c1cccc(N2Cc3c(cc(CN4CC[C@@H](C#N)C4)cc3C(F)(F)F)C2=O)c1` [Compound 455, (R)-1-((3-oxo-2-(3-((R)-1,1,2-trifluoro-1-(4-methyl-4H-1,2,4-triazol-3-yl)propan-2-yl)phenyl)-7-(trifluoromethyl)isoindolin-5-yl)methyl)pyrrolidine-3-carbonitrile], the fold induction at 3 µM in experiment [1] is below 2. Besides, the fold induction at 10 µM in experiment [1] is below 2; in experiment [3] (setting [6]), above 5; in experiment [3] (setting [7]), 2.01 to 5. In addition, the fold induction at 0.625 µM in experiment [3] (setting [4]) is above 5; in experiment [3] (setting [5]), 1.01 to 2. For the same compound, the fold induction at 2.5 µM in experiment [3] (setting [4]) is above 5; in experiment [3] (setting [5]), 2.01 to 5.
With `C[C@H](Cc1nncn1C)c1cccc(NC(=O)c2cc3cc(N4CCNCC4)ccc3cn2)c1` [Compound 472, N-{3-[(2R)-1-(4-methyl-4H-1,2,4-triazol-3-yl)propan-2-yl]phenyl}-6-(piperazin-1-yl)isoquinoline-3-carboxamide], the fold induction at 3 µM in experiment [1] was below 2. Further, the fold induction at 10 µM in experiment [1] was below 2; in experiment [3] (setting [6]), 2.01 to 5; in experiment [3] (setting [7]), 1.01 to 2. Further, the fold induction at 0.625 µM in experiment [3] (setting [4]) and in experiment [3] (setting [5]) was below 1 throughout. The figures for the fold induction at 2.5 µM in experiment [3] (setting [4]) and in experiment [3] (setting [5]) were 1.01 to 2 and below 1, respectively.
